The values below come from PMC5681660, “Reduced hepatitis B and D viral entry using clinically applied drugs as novel inhibitors of the bile acid transporter NTCP” (Scientific Reports, 2017).

In this assay the target is T1, human NTCP (Homo sapiens, UniProt Q14973).
T1 sequence (Q14973 1-349): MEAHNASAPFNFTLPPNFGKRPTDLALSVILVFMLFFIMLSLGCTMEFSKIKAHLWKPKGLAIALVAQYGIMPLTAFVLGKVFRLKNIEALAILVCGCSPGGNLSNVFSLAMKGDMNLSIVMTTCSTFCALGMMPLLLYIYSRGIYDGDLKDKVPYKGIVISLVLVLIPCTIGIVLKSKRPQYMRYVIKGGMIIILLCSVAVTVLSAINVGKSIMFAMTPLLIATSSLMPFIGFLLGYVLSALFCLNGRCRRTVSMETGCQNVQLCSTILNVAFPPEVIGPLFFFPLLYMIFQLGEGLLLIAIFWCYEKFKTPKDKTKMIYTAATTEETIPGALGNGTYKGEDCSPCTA
As to the kind of experiment: Screening taurocholate uptake assay (96-well, [14C]taurocholate, 10 µM drug). The conditions noted are these: for B-score functional assay: screening taurocholate uptake, 10 µM drug.

Where [1] appears, read: combined ranking of functional and binding screening assays.
Where [2] appears, read: ranking over the functional and the binding screening assay.

Each structure is given as a SMILES string. Counter-ions that a name gives are not always drawn.

In the case of `O=c1[nH]c(=O)n(C2CCCO2)cc1F` (centres unmarked) [Tegafur], the B-score functional assay is recorded as -0.939. Moreover, the Ranking score under setting [1] amounted to 518.446.
Compound `CCC1(C)CC(=O)NC(=O)C1` [Bemegride] gave a B-score functional assay of -2.979. The Ranking score under setting [2] was 76.1315.
As to `C[C@@](Cc1ccc(O)c(O)c1)(NN)C(=O)O` [Carbidopa], the B-score functional assay was 0.686. The Ranking score under setting [1] came out at 597.675.
The compound `C=C(NC(=O)C(=C)NC(=O)c1csc(C2=N[C@@H]3c4csc(n4)[C@H]4NC(=O)c5csc(n5)[C@H]([C@](C)(O)[C@@H](C)O)NC(=O)[C@H]5CSC(=N5)/C(=C/C)NC(=O)[C@H]([C@@H](C)O)NC(=O)c5csc(n5)[C@]3(CC2)NC(=O)[C@H](C)NC(=O)C(=C)NC(=O)[C@H](C)NC(=O)[C@H]([C@@H](C)CC)N[C@@H]2C=Cc3c([C@H](C)O)cc(nc3[C@H]2O)C(=O)O[C@@H]4C)n1)C(N)=O` [Thiostrepton] returned a B-score functional assay of -0.068. In addition, the Ranking score under setting [2] worked out at 23.8747.
The like results for `CCCc1ncc(C[n+]2ccccc2C)c(N)n1` [Amprolium hydrochloride] were, in that order, -0.209 and 254.142.
Turning to `Cl.OC(CCN1CCCCC1)(c1ccccc1)C1CCCCC1` (centres unmarked) [Trihexyphenidyl-D,L Hydrochloride], the B-score functional assay is reported as 0.458. The Ranking score under setting [1] came to 472.758.
`C=C1/C(=C\C=C2/CCC[C@]3(C)[C@@H]([C@H](C)/C=C/[C@@H](O)C4CC4)CC[C@@H]23)C[C@@H](O)C[C@@H]1O` [Calcipotriene] yielded a B-score functional assay of -4.364. This compound also gave a Ranking score under setting [2] of 164.682.
The corresponding values for `CN1CCN(C(=O)OC2c3nccnc3C(=O)N2c2ccc(Cl)cn2)CC1` (centres unmarked) [Zopiclone] are -0.919 and 176.746.
For the compound `CNc1ncnc2c1ncn2[C@@H]1O[C@H](CO)[C@@H](O)[C@H]1O` [N6-methyladenosine], the B-score functional assay is listed as 0.107. Also, the Ranking score under setting [1] is recorded as 568.625.
The corresponding values for `CC(=O)OCC(=O)[C@@]12OC3(CCCC3)O[C@@H]1C[C@H]1[C@@H]3CCC4=CC(=O)C=C[C@]4(C)[C@@]3(F)[C@@H](O)C[C@@]12C` [Amcinonide] are 0.343 and 530.494.
Compound `CCCCCN(CCCCC)C(=O)C(CCC(=O)[O-])NC(=O)c1ccc(Cl)c(Cl)c1.[Na+]` (centres unmarked) [Lorglumide sodium salt] registered a B-score functional assay of -3.59. Besides, the Ranking score under setting [2] is given as 164.012.
For the compound `CCCCOc1ccc(C(=O)CCN2CCCCC2)cc1` [Dyclonine hydrochloride], the B-score functional assay is reported as -0.08. For the same compound, the Ranking score under setting [1] worked out at 591.312.
The compound `CN(C)CCCC1(c2ccc(F)cc2)OCc2cc(C#N)ccc21` (centres unmarked) [Citalopram Hydrobromide] gave a B-score functional assay of -1.909. Under setting [2], this compound displayed a Ranking score of 277.496.
The compound `Cc1cccc(Nc2ccncc2S(=O)(=O)NC(=O)NC(C)C)c1` [Torsemide] showed a B-score functional assay of -1.122. In addition, the Ranking score under setting [1] was 467.226.
The corresponding values for `C=C1C(=O)O[C@H]2[C@H]1CC/C(C)=C/CC[C@@]1(C)O[C@@H]21` [Parthenolide] are 2.985 and 607.546.
As for `CC(C)(C)NCC(O)c1ccc(O)c(CO)c1` (centres unmarked) [Salbutamol], the B-score functional assay turned out to be 1.838. For the same compound, under setting [2], the Ranking score is listed as 275.042.
The corresponding values for `CS(=O)(=O)c1ccc([C@@H](O)[C@@H](CF)NC(=O)C(Cl)Cl)cc1` [Florfenicol] are -0.913 and 235.125.
With `CC(C)(C)NCC(O)COc1cccc2c1CCC(=O)N2` (centres unmarked) [Carteolol hydrochloride], the B-score functional assay is recorded as -0.486. Also, the Ranking score under setting [1] amounted to 570.247.
`CCOC(=O)OC(C)OC1=C(C(=O)Nc2ccccn2)N(C)S(=O)(=O)c2ccccc21` (centres unmarked) [Ampiroxicam]: the B-score functional assay stood at 0.098. Also, the Ranking score under setting [1] was determined as 519.584.
For `CC1(C)S[C@@H]2[C@H](NC(=O)[C@H](NC(=O)N3CCNC3=O)c3ccccc3)C(=O)N2[C@H]1C(=O)O` [Azlocillin sodium salt], the B-score functional assay is listed as -0.407. In addition, the Ranking score under setting [2] was determined as 129.337.
For `CCCCC[C@H](O)/C=C/[C@@H]1[C@@H](C/C=C\CCCC(=O)O)[C@@H](O)C[C@H]1O` [Dinoprost trometamol], the B-score functional assay was found to be 0.508. Besides, the Ranking score under setting [1] is given as 615.067.
The like results for `CN(C)CCCOc1nn(Cc2ccccc2)c2ccccc12` [Benzydamine hydrochloride] were, in that order, 0.075 and 571.97.
With `CC1=C(/C=C/C(C)=C/C=C/C(C)=C/C(=O)O)C(C)(C)CCC1` [Retinoic acid], the B-score functional assay was -0.152. Under setting [2], this compound had a Ranking score of 197.388.
The corresponding values for `OCCN1CCN(CCCN2c3ccccc3Sc3ccc(C(F)(F)F)cc32)CC1` [Fluphenazine dihydrochloride] are -4.102 and 99.0152.
`COc1ccc(C(=O)NCc2ccc(OCCN(C)C)cc2)cc1OC` [Itopride] gave a B-score functional assay of -0.688. For the same compound, the Ranking score under setting [1] came out at 560.029.
For `O=c1[nH]c2ccccc2n1CCCN1CCC(n2c(=O)[nH]c3cc(Cl)ccc32)CC1` [Domperidone], the B-score functional assay was -1.309. Further, the Ranking score under setting [1] was 475.277.
In turn, `CC(C)C[C@H](NC(=O)[C@@H](O)[C@H](N)Cc1ccccc1)C(=O)O` [Ubenimex] registered a B-score functional assay of 0.218. The Ranking score under setting [1] was 608.5.
`CO/N=C(\C(=O)N[C@@H]1C(=O)N2C(C(=O)OC(C)OC(C)=O)=C(COC(N)=O)CS[C@H]12)c1ccco1` (some centres unmarked) [Cefuroxime axetil] came in with a B-score functional assay of -0.317. Moreover, under setting [1], the Ranking score stood at 621.898.
`COc1c(N2CCNC(C)C2)c(F)cc2c(=O)c(C(=O)O)cn(C3CC3)c12` (centres unmarked) [Gatifloxacin] displayed a B-score functional assay of -0.592. Moreover, the Ranking score under setting [1] turned out to be 627.155.
With `COc1ccc(C(=O)CC(=O)c2ccc(C(C)(C)C)cc2)cc1` [Avobenzone], the B-score functional assay is given as -0.955. This compound yielded a Ranking score under setting [2] of 206.26.
The like results for `Nc1nc(Cl)nc2c1ncn2[C@H]1C[C@H](O)[C@@H](CO)O1` [Cladribine] were, in that order, -0.011 and 277.042.
`CCS(=O)(=O)CCn1c([N+](=O)[O-])cnc1C` [Tinidazole] yielded a B-score functional assay of -0.469. Also, the Ranking score under setting [1] is recorded as 478.029.
`[H]/N=C(/N)N[C@H]1[C@H](O)[C@@H](O)[C@H](O[C@@H]2O[C@@H](C)[C@](O)(C=O)[C@H]2O[C@@H]2O[C@@H](CO)[C@H](O)[C@@H](O)[C@@H]2NC)[C@@H](N/C(N)=N\[H])[C@@H]1O` [Streptomycin sulfate] had a B-score functional assay of 1.326. This compound displayed a Ranking score under setting [2] of 115.983.
Compound `CO[C@H]1/C=C/O[C@@]2(C)Oc3c(C)c(O)c4c(O)c(c5c(nc6cc(C)ccn65)c4c3C2=O)NC(=O)/C(C)=C\C=C\[C@H](C)[C@H](O)[C@@H](C)[C@@H](O)[C@@H](C)[C@H](OC(C)=O)[C@@H]1C` [Rifaximin] had a B-score functional assay of -0.408. In addition, the Ranking score under setting [1] is 627.999.
